In patent US10377770B2 (Novartis AG, priority 2015, dated 2019):

The molecules below were run against C-Raf FL (full length CRAF with Y340E and Y341E activating mutations, co-expressed with h14-3-3 zeta) (Homo sapiens (Human), UniProt P04049, Y340E/Y341E) (assay: In vitro Raf activity determination, AlphaScreen p-MEK readout, c-Raf (C-Raf FL)). Details: c-Raf approximately 4 nM, ATP 1 μM, pre-incubation 60 minutes, reaction 1 hour.
Sequence of C-Raf FL (full length CRAF with Y340E and Y341E activating mutations, co-expressed with h14-3-3 zeta) (P04049 whole entry Y340E/Y341E): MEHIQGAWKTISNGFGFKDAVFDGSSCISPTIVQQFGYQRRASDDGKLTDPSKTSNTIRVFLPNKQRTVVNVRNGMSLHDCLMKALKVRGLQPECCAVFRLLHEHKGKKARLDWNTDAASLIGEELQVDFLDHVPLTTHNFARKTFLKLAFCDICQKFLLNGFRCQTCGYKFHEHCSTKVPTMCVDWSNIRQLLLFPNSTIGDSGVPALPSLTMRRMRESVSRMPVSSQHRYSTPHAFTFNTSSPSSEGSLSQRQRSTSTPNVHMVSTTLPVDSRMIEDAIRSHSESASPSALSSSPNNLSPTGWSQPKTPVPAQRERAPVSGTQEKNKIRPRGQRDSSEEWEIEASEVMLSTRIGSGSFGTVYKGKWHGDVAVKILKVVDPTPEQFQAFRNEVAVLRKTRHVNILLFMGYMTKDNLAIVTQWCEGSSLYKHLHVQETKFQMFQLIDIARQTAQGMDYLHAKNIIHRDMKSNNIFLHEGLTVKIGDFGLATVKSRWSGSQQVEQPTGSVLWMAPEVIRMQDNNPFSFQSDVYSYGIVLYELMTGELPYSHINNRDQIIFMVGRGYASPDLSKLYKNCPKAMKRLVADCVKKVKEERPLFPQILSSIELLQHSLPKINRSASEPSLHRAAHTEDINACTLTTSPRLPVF
Sequence of C-Raf FL (full length CRAF with Y340E and Y341E activating mutations, co-expressed with h14-3-3 zeta) (P63104 whole entry partner): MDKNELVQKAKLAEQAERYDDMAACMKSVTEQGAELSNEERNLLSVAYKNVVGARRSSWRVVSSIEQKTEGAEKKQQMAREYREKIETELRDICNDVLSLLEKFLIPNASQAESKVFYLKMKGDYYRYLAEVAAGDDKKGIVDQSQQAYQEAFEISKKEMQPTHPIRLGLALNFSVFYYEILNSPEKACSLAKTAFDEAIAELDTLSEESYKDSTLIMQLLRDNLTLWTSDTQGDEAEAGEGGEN
Assay type: biochemical
Outline: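 Full-length C-Raf (~4 nM) pre-incubated 60 min at room temperature with compound and kinase-dead biotinylated MEK1 (~10 nM) in Tris pH 7.5, 15 mM MgCl2, BSA, DTT. Reaction started with 1 μM ATP and run 1 h at room temperature. Phospho-MEK detected by AlphaScreen with anti-p-MEK antibody.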
With Cc1ccc(NC(=O)c2ccnc(C(C)(F)F)c2)cc1-c1ccc2c(c1)N1CCOCC1CC2O (racemic) [Example 6, (rac)-2-(1,1-difluoroethyl)-N-(3-(6-hydroxy-1,2,4,4a,5,6-hexahydro-[1,4]oxazino[4,3-a]quinolin-9-yl)-4-methylphenyl)isonicotinamide] the IC50 was 0.076 nM. For CCN1C(=O)C[C@@H]2COCCN2c2cc(-c3cc(NC(=O)c4ccnc(C(C)(F)F)c4)ccc3C)cnc21 [Example 126, (R)-2-(1,1-Difluoroethyl)-N-(3-(7-ethyl-6-oxo-1,2,4a,5,6,7-hexahydro-4H-[1,4]oxazino[4,3-d]pyrido[2,3-b][1,4]diazepin-10-yl)-4-methylphenyl)isonicotinamide], the IC50 was 0.016 nM. Cc1ccc(NC(=O)c2ccnc(C(F)(F)F)c2)cc1-c1cnc2c(c1)N1CCOCC1C(=O)N2 (racemic) [Example 112, rac-N-(4-Methyl-3-(5-oxo-1,2,4,4a,5,6-hexahydropyrido[2′,3′:5,6]pyrazino[2,1-c][1,4]oxazin-9-yl)phenyl)-2-(trifluoromethyl)isonicotinamide] was tested, and the IC50 was under 0.0017 nM. In the case of CCN1C[C@@H]2COCCN2c2cc(-c3cc(NC(=O)c4ccnc(C(C)(F)F)c4)ccc3C)cnc2C1=O [Example 502, (R)-2-(1,1-difluoroethyl)-N-(3-(6-ethyl-7-oxo-1,2,4a,5,6,7-hexahydro-4H-[1,4]oxazino[4,3-a]pyrido[2,3-f][1,4]diazepin-10-yl)-4-methylphenyl)iso-nicotinamide], the IC50 is reported as 0.2 nM. Cc1ccc(NC(=O)c2ccnc(C(C)(F)F)c2)cc1-c1cnc2c(c1)N1CCOC[C@@H]1[C@](C#N)(CF)C2 [Example 516, N-(3-((4aS,5R)-5-cyano-5-(fluoromethyl)-1,2,4,4a,5,6-hexahydro-[1,4]oxazino[4,3-a][1,5]naphthyridin-9-yl)-4-methylphenyl)-2-(1,1-difluoroethyl)iso-nicotinamide] was tested, and the IC50 was 0.1 nM. Cc1ccc(NC(=O)c2ccnc(C(C)(F)F)c2)cc1-c1cnc2c(c1)N1CCOCC1CC(=O)N2 (racemic) [Example 124, rac-2-(1,1-Difluoroethyl)-N-(4-methyl-3-(6-oxo-1,2,4a,5,6,7-hexahydro-4H-[1,4]oxazino[4,3-d]pyrido[2,3-b][1,4]diazepin-10-yl)phenyl)isonicotinamide] was tested, and the IC50 was 0.0094 nM. Cc1ccc(NC(=O)c2ccnc(C(C)(F)F)c2)cc1-c1cnc2c(c1)N1CCOCC1C(CS(C)(=O)=O)C2 (centres unmarked) [Example 99, 2-(1,1-difluoroethyl)-N-(4-methyl-3-(5-((methylsulfonyl)methyl)-1,2,4,4a,5,6-hexahydro-[1,4]oxazino[4,3-a][1,5]naphthyridin-9-yl)phenyl)isonicotinamide] was tested, and the IC50 was 0.038 nM. In the case of Cc1ccc(NC(=O)c2ccnc(C(C)(C)C#N)c2)cc1-c1cnc2c(c1)N1CCOC[C@H]1C[C@@H]2O (racemic) [Example 149, rac-cis-2-(2-cyanopropan-2-yl)-N-(3-(6-hydroxy-1,2,4,4a,5,6-hexahydro-[1,4]oxazino[4,3-a][1,5]naphthyridin-9-yl)-4-methylphenyl)isonicotinamide], the IC50 is reported as 0.013 nM. Cc1ccc(NC(=O)c2ccnc(C(C)(F)F)c2)cc1-c1ccc2c(c1)N1CCOC[C@@H]1C[C@]2(C)O [Example 25, 2-(1,1-difluoroethyl)-N-(3-((4aS,6S)-6-hydroxy-6-methyl-1,2,4,4a,5,6-hexahydro-[1,4]oxazino[4,3-a]quinolin-9-yl)-4-methylphenyl)isonicotinamide] gave an IC50 of 0.52 nM. Cc1ccc(NC(=O)c2ccnc(C(F)(F)F)c2)cc1-c1cnc2c(c1)N1CCOC[C@H]1[C@@H](C(C)(C)O)C2 [Example 451, N-(3-((4aR,5S)-5-(2-hydroxypropan-2-yl)-1,2,4,4a,5,6-hexahydro-[1,4]oxazino[4,3-a][1,5]naphthyridin-9-yl)-4-methylphenyl)-2-(trifluoromethyl) isonicotinamide] was tested, and the IC50 was 0.6 nM. Cc1ccc(NC(=O)c2ccnc(C(F)(F)F)c2)cc1-c1cnc2c(c1)N1CCOC[C@@H]1[C@H](C(C)(C)O)C2 [Example 448, N-(3-((4aS,5R)-5-(2-hydroxypropan-2-yl)-1,2,4,4a,5,6-hexahydro-[1,4]oxazino[4,3-a][1,5]naphthyridin-9-yl)-4-methylphenyl)-2-(trifluoromethyl)isonicotinamide] gave an IC50 of 0.2 nM. Cc1ncc(NC(=O)c2cccc(C(C)(F)F)c2)cc1-c1ccc2c(c1)N1CCOC[C@H]1[C@](F)(CO)C2 [Example 367, 3-(1,1-difluoroethyl)-N-(5-((4aS,5S)-5-fluoro-5-(hydroxymethyl)-1,2,4,4a,5,6-hexahydro-[1,4]oxazino[4,3-a]quinolin-9-yl)-6-methylpyridin-3-yl)benzamide] gave an IC50 of 1 nM. Work on Cc1ccc(NC(=O)c2ccnc(C(F)(F)F)c2)cc1-c1cnc2c(c1)N1CCOC[C@@H]1C[C@@H]2O [Example 103, N-(3-((4aS,6S)-6-hydroxy-1,2,4,4a,5,6-hexahydro-[1,4]oxazino[4,3-a][1,5]naphthyridin-9-yl)-4-methylphenyl)-2-(trifluoromethyl)isonicotinamide] yielded an IC50 of 0.013 nM. In the case of Cc1ccc(NC(=O)c2ccnc(C(F)(F)F)c2)cc1-c1cnc2c(c1)N1CCOCC1CC2=O (racemic) [Example 110, rac-N-(4-methyl-3-(6-oxo-1,2,4,4a,5,6-hexahydro-[1,4]oxazino[4,3-a][1,5]naphthyridin-n-9-yl)phenyl)-2-(trifluoromethyl)isonicotinamide], the IC50 is reported as 0.002 nM. CCN1C(=O)C2COCCC2(C)c2cc(-c3cc(NC(=O)c4ccnc(C(F)(F)F)c4F)ccc3C)cnc21 (stereo not drawn) [Example 348, N-(3-((4a,10b- trans)-6-ethyl-10b-methyl-5-oxo-2,4,4a,5,6,10b-hexahydro-1H-pyrano[3,4-c][1,8]naphthyridin-9-yl)-4-methylphenyl)-3-fluoro-2-(trifluoromethyl) isonicotinamide] showed an IC50 of 0.7 nM. For Cc1ccc(NC(=O)c2cnnc(C(F)(F)F)c2)cc1-c1cc(F)c2c(c1)N1CCOC[C@H]1[C@@](F)(CO)C2 [Example 433, N-(3-((4aS,5R)-5,7-difluoro-5-(hydroxymethyl)-1,2,4,4a,5,6-hexahydro-[1,4]oxazino[4,3-a]quinolin-9-yl)-4-methylphenyl)-6-(trifluoromethyl)pyridazine-4-carboxamide], the IC50 was 0.1 nM. Cc1ccc(NC(=O)c2ccnc(C(C)(C)C#N)c2)cc1-c1cnc2c(c1)N1CCOC[C@H]1C[C@H]2O [Example 150, 2-(2-cyanopropan-2-yl)-N-(3-((4aR,6R)-6-hydroxy-1,2,4,4a,5,6-hexahydro-[1,4]oxazino[4,3-a][1,5]naphthyridin-9-yl)-4-methylphenyl)isonicotinamide] was tested, and the IC50 was 0.079 nM. In the case of CC[C@@H]1Oc2nnc(-c3cc(NC(=O)c4ccnc(C(C)(F)F)c4)ccc3C)cc2N2CCOC[C@H]12 [Example 532, 2-(1,1-Difluoroethyl)-N-(3-((6S,6aR)-6-ethyl-6a,7,9,10-tetrahydro-6H-[1,4]oxazino[4,3-d]pyridazino[3,4-b][1,4]oxazin-2-yl)-4-methylphenyl)isonicotinamide], the IC50 is reported as 0.2 nM. Work on Cc1ccc(NC(=O)c2ccnc(C(C)(F)F)c2)cc1-c1cnc2c(c1)N1CCOC[C@H]1[C@@H](CO)C2 [Example 492, 2-(1,1-difluoroethyl)-N-(3-((4aR,5S)-5-(hydroxymethyl)-1,2,4,4a,5,6-hexahydro-[1,4]oxazino[4,3-a][1,5]naphthyridin-9-yl)-4-methylphenyl)iso-nicotinamide] yielded an IC50 of 0.2 nM. Cc1ccc(NC(=O)c2ccnc(C(F)(F)F)c2)cc1-c1ccc2c(c1)N1CCOCC1CC2N (racemic) [Example 28, (rac)-N-(3-(6-amino-1,2,4,4a,5,6-hexahydro-[1,4]oxazino[4,3-a]quinolin-9-yl)-4-methylphenyl)-2-(trifluoromethyl)isonicotinamide] gave an IC50 of 0.059 nM. With Cc1ncc(NC(=O)c2cccc(C(F)(F)F)c2)cc1-c1cnc2c(c1)[C@@H]1CCOC[C@H]1C(=O)N2C(C)C [Example 262, N-(5-((4aS, 10bR)-6-isopropyl-5-oxo-2,4,4a,5,6,10b-hexahydro-1H-pyrano[3,4-c][1,8]naphthyridin-9-yl)-6-methylpyridin-3-yl)-3-(trifluoromethyl) benzamide] the IC50 was 0.7 nM. Cc1ncc(NC(=O)c2ccnc(C(C)(F)F)c2)cc1-c1ccc2c(c1)N1CCOC[C@H]1[C@](C)(C#N)C2 (racemic) [Example 87, (rac)-N-(5-(5-cyano-5-methyl-1,2,4,4a,5,6-hexahydro-[1,4]oxazino[4,3-a]quinolin-9-yl)-6-methylpyridin-3-yl)-2-(1,1-difluoroethyl)isonicotinamide] showed an IC50 of 0.022 nM. Cc1ccc(NC(=O)c2ccnc(C(C)(F)F)c2)cc1-c1cc2n(c(=O)c1)CC[C@@H]1COCCN21 [Example 413, (R)-2-(1,1-difluoroethyl)-N-(4-methyl-3-(8-oxo-1,2,4,4a,5,6-hexahydro-8H-pyrido[2′,1′:2,3]pyrimido[6,1-c][1,4]oxazin-10-yl)phenyl)isonicotinamide] showed an IC50 of 0.2 nM. Cc1ccc(NC(=O)c2ccnc(C(F)(F)F)c2)cc1-c1cnc2c(c1)N1CCOC[C@H]1[C@@](C#N)(CF)C2 [Example 520] gave an IC50 of 0.1 nM. Work on Cc1ccc(NC(=O)c2ccnc(C(C)(F)F)c2)cc1-c1ccc2c(c1)N1CCOC[C@H]1[C@H](C#N)C2 (racemic) [Example 90, (rac)-N-(3-(5-cyano-1,2,4,4a,5,6-hexahydro-[1,4]oxazino[4,3-a]quinolin-9-yl)-4-methylphenyl)-2-(1,1-difluoroethyl)isonicotinamid] yielded an IC50 of 0.023 nM. With CCN1C(=O)OC2COCCC2c2cc(-c3cc(NC(=O)c4cccc(C(F)(F)F)c4)cnc3C)cnc21 [Example 298, N-(5-((4aS,11bR- cis)-7-ethyl-6-oxo-2,4,4a,6,7,11b-hexahydro-1H-pyrano[4,3-f]pyrido[2,3-d][1,3]oxazepin-10-yl)-6-methylpyridin-3-yl)-3-(trifluoromethyl) benzamide] the IC50 was 0.3 nM.
